What all share (format): cell-based
Data set [1] concerns MDA-MB-231 (human breast adenocarcinoma). Kind of data set: MTT cytotoxicity assay, MDA-MB-231. The note with it: MDA-MB-231 cells. As to the method:
(§1) In the present invention, garciesculentones A and C (compounds 1 and 2) are evaluated for their cytotoxicity against two human hepatoma carcinoma (SMMC-7721 and HepG2) and two human breast adenocarcinoma cell lines (MCF-7 and MDA-MB-231) using MTT assay, palcitaxel is used as positive control. […] In practice, an effective concentration of the tested compound to kill a target cancer cell in vitro is normally about double of the corresponding IC50 value. In addition, wound healing assay is conducted to test whether two novel compounds could affect cell motility.
(§2) Cytotoxicity Assay. Cytotoxic activities of all isolates were evaluated by MTT assay using SMMC-7721 (human hepatocellular carcinoma), HepG2 (human hepatocellular carcinoma), MCF-7 (human breast adenocarcinoma), and MDA-MB-231 (human breast adenocarcinoma). Paclitaxel was used as positive control. The detailed methodology for cytotoxicity assay has already been described in a previous report in Xia, Z.-X.; Zhang, D.-D.; Liang, S.; Lao, Y.-Z.; Zhang, H.; Tan, H.-S.; Chen, S.-L.; Wang, X.-H.; Xu, H.-X., Bioassay-Guided Isolation of Prenylated Xanthones and Polycyclic Acylphloroglucinols from the Leaves of Garcinia nujiangensis. Journal of Natural Products 2012.
Background: Tetrazolium dyes change colour on reduction, which living cells bring about.

Data set [2] relates to human esophageal carcinoma (ECA109) cells. Kind of data set: Wound healing assay (cell migration). The following applies: 10 and 20 μg/mL, 36 hours. As to the method:
as §1
Wound healing assay. A wound healing assay was performed by using a modified procedure described previously in Jones, J. I.; Gockerman, A.; Busby, W. H., Jr.; Wright, G.; Clemmons, D. R., Insulin-like growth factor binding protein 1 stimulates cell migration and binds to the alpha 5 beta 1 integrin by means of its Arg-Gly-Asp sequence. Proc Nall Acad Sci USA 1993, 90 (22), 10553-7. Briefly, cells were plated in 24 wells plate at 70% confluence in conditioned medium. […] Cell migration into the wound surface was monitored by Olympus 1X71 microscopy and digitally photographed.

Data set [3] relates to HepG2 (human hepatocellular carcinoma). Description: MTT cytotoxicity assay, HepG2. The note with it: HepG2 cells, read-out: Cytotoxicity IC50, HepG 2. As to the method: as §1, §2
Data set [4] concerns MCF-7 (human breast adenocarcinoma). Description: MTT cytotoxicity assay, MCF-7. As for the experimental part: as §1, §2
For data set [5], the system named is SMMC-7721 (human hepatocellular carcinoma). Description: MTT cytotoxicity assay, SMMC-7721. The following applies: SMMC-7721 cells. As to the method: as §1, §2

Like-named read-outs stand apart in the source and are kept apart here.

For orientation: IC50 means the concentration at which inhibition is half-maximal.

Turning to `CC(C)=CC[C@H]1C[C@@]23C[C@H](CC=C(C)C)C(C)(C)[C@@](CC=C(C)C)(C(=O)C(OC(=O)c4ccc(O)c(O)c4)=C2OC1(C)C)C3=O` (relative stereo) [Compound 1, Garciesculentone A], the concentration for half-maximal inhibition (IC50) in data set [1] came out at 16.4 µM; in data set [3], 43.2 µM; in data set [4] (MCF-7 cells), 20.3 µM; in data set [5], 10.8 µM. Also, the “Cell migration into the wound area (antimigration effect)” value in data set [2] was “do not migrate into and completely close the wound”.
Regarding `CC(=O)O[C@H]1C(=O)[C@@]2(C)[C@H]([C@H](OC(=O)c3ccccc3)[C@]3(O)C[C@H](OC(=O)[C@H](O)[C@@H](NC(=O)c4ccccc4)c4ccccc4)C(C)=C1C3(C)C)[C@]1(OC(C)=O)CO[C@@H]1C[C@@H]2O` [Palcitaxel, Paclitaxel, reference compound], the half-inhibitory concentration (IC50) in data set [1] (Homo sapiens) amounted to 0.0082 µM; in data set [3] (Homo sapiens), 0.0046 µM; in data set [4] (Homo sapiens, MCF7, MCF-7 cells), 0.0015 µM; in data set [5] (Homo sapiens) it was 0.0091 µM.
On to Garciesculentone C [Compound 2], for which the concentration for half-maximal inhibition (IC50) in data set [1] was found to be 21.5 µM; in data set [3], 21.9 µM; in data set [4] (MCF-7 cells), 11.1 µM; in data set [5], 17.5 µM. Further, the “Cell migration into the wound area (antimigration effect)” value in data set [2] was “do not migrate into and completely close the wound”.
